In the supplement of paper PMC10307832:

Assays:
Experiment in all cases: relative viability (nuclei count vs DMSO), 5 days (fraction); higher = more cells survive
[1] = system: 201T
Procedure, shortened: (§1)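 Cells from lung cancer lines were seeded into 1536-well plates and, one day later, dosed by pin tool. Treatments were either a single drug or a fixed dose of an anchor drug with five library-drug doses (not always all listed) in √10 steps. After 5 days, nuclei were stained in a one-step fixation (final 0.05% Triton X-100, 1% formaldehyde, 1 ug/ml Hoechst) and counted on 4× images, and relative viability is the treated-to-vehicle nuclei ratio, as the median of duplicate plates.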

[2] = system: COR-L 105
Procedure, shortened: as §1

[3] = system: ChaGo-K-1
Procedure, shortened: as §1

[4] = system: EPLC-272H
Procedure, shortened: as §1

[5] = system: H3255
Procedure, shortened: as §1

[6] = system: HCC-78
Procedure, shortened: as §1

[7] = system: HCC-827
Procedure, shortened: as §1

[8] = system: LC-2-ad
Procedure, shortened: as §1

[9] = system: LCLC-97TM1
Procedure, shortened: as §1

[10] = system: NCI-H1666
Procedure, shortened: as §1

[11] = system: NCI-H1915
Procedure, shortened: as §1

[12] = system: NCI-H2087
Procedure, shortened: as §1

[13] = system: NCI-H2126
Procedure, shortened: as §1

[14] = system: NCI-H2347
Procedure, shortened: as §1

[15] = system: NCI-H23
Procedure, shortened: as §1

[16] = system: NCI-H2405
Procedure, shortened: as §1

[17] = system: NCI-H520
Procedure, shortened: as §1

[18] = system: NCI-H647
Procedure, shortened: as §1

[19] = system: NCI-H650
Procedure, shortened: as §1

[20] = system: NCI-H661
Procedure, shortened: as §1

[21] = system: PC-14
Procedure, shortened: as §1

[22] = system: RERF-LC-KJ
Procedure, shortened: as §1

COc1nc(C)cnc1NS(=O)(=O)c1cccnc1-c1ccc(-c2nnco2)cc1 [Zibotentan] + C[C@@H](Oc1cc(-c2cnn(C3CCNCC3)c2)cnc1N)c1c(Cl)ccc(F)c1Cl [Crizotinib] (partner 1 µM)
relative viability ([1]; first compound 0.08 µM): 1.03
relative viability ([1]; first compound 0.253 µM): 0.992
relative viability ([1]; first compound 0.8 µM): 1.04
relative viability ([1]; first compound 2.53 µM): 1.07
relative viability ([2]; first compound 0.08 µM): 0.826
relative viability ([2]; first compound 0.253 µM): 0.665
relative viability ([2]; first compound 0.8 µM): 0.901
relative viability ([2]; first compound 2.53 µM): 1.07
relative viability ([3]; first compound 0.08 µM): 1.33
relative viability ([3]; first compound 0.8 µM): 1.09
relative viability ([3]; first compound 2.53 µM): 1.21
relative viability ([4]; first compound 0.08 µM): 0.841
relative viability ([4]; first compound 0.253 µM): 0.841
relative viability ([4]; first compound 0.8 µM): 1.38
relative viability ([4]; first compound 2.53 µM): 0.951
relative viability ([5]; first compound 0.08 µM): 0.846
relative viability ([5]; first compound 0.253 µM): 0.841
relative viability ([5]; first compound 0.8 µM): 0.975
relative viability ([5]; first compound 2.53 µM): 0.963
relative viability ([6]; first compound 0.08 µM): 0.336
relative viability ([6]; first compound 0.253 µM): 0.311
relative viability ([6]; first compound 0.8 µM): 0.324
relative viability ([6]; first compound 2.53 µM): 0.343
relative viability ([7]; first compound 0.08 µM): 0.944
relative viability ([7]; first compound 0.253 µM): 0.955
relative viability ([7]; first compound 0.8 µM): 0.946
relative viability ([7]; first compound 2.53 µM): 0.987
relative viability ([8]; first compound 0.08 µM): 0.511
relative viability ([8]; first compound 0.253 µM): 0.448
relative viability ([8]; first compound 0.8 µM): 0.493
relative viability ([8]; first compound 2.53 µM): 0.469
relative viability ([9]; first compound 0.08 µM): 0.272
relative viability ([9]; first compound 0.253 µM): 0.374
relative viability ([9]; first compound 0.8 µM): 0.351
relative viability ([9]; first compound 2.53 µM): 0.435
relative viability ([10]; first compound 0.08 µM): 1.01
relative viability ([10]; first compound 0.253 µM): 0.856
relative viability ([10]; first compound 0.8 µM): 1.15
relative viability ([10]; first compound 2.53 µM): 0.996
relative viability ([11]; first compound 0.08 µM): 0.968
relative viability ([11]; first compound 0.253 µM): 0.879
relative viability ([11]; first compound 0.8 µM): 0.957
relative viability ([11]; first compound 2.53 µM): 0.945
relative viability ([12]; first compound 0.08 µM): 0.881
relative viability ([12]; first compound 0.253 µM): 1.07
relative viability ([12]; first compound 0.8 µM): 0.984
relative viability ([12]; first compound 2.53 µM): 0.928
relative viability ([13]; first compound 0.08 µM): 1.01
relative viability ([13]; first compound 0.253 µM): 0.94
relative viability ([13]; first compound 0.8 µM): 0.992
relative viability ([13]; first compound 2.53 µM): 1.05
relative viability ([14]; first compound 0.08 µM): 0.706
relative viability ([14]; first compound 0.253 µM): 0.476
relative viability ([14]; first compound 0.8 µM): 0.715
relative viability ([14]; first compound 2.53 µM): 0.672
relative viability ([15]; first compound 0.08 µM): 0.54
relative viability ([15]; first compound 0.253 µM): 0.552
relative viability ([15]; first compound 0.8 µM): 0.565
relative viability ([15]; first compound 2.53 µM): 0.593
relative viability ([16]; first compound 0.08 µM): 0.907
relative viability ([16]; first compound 0.253 µM): 0.882
relative viability ([16]; first compound 0.8 µM): 0.789
relative viability ([16]; first compound 2.53 µM): 0.881
relative viability ([17]; first compound 0.08 µM): 0.857
relative viability ([17]; first compound 0.253 µM): 0.747
relative viability ([17]; first compound 0.8 µM): 0.798
relative viability ([17]; first compound 2.53 µM): 0.893
relative viability ([18]; first compound 0.08 µM): 1.04
relative viability ([18]; first compound 0.253 µM): 1.06
relative viability ([18]; first compound 0.8 µM): 1.18
relative viability ([18]; first compound 2.53 µM): 1.23
relative viability ([19]; first compound 0.08 µM): 0.856
relative viability ([19]; first compound 0.253 µM): 0.661
relative viability ([19]; first compound 0.8 µM): 0.705
relative viability ([19]; first compound 2.53 µM): 0.792
relative viability ([20]; first compound 0.08 µM): 0.971
relative viability ([20]; first compound 0.8 µM): 1.04
relative viability ([20]; first compound 2.53 µM): 0.853
relative viability ([21]; first compound 0.08 µM): 0.907
relative viability ([21]; first compound 0.253 µM): 0.882
relative viability ([21]; first compound 0.8 µM): 0.968
relative viability ([21]; first compound 2.53 µM): 0.899
relative viability ([22]; first compound 0.08 µM): 0.921
relative viability ([22]; first compound 0.253 µM): 0.802
relative viability ([22]; first compound 0.8 µM): 0.786
relative viability ([22]; first compound 2.53 µM): 0.855
